This is an account of results in ChEMBL document CHEMBL1201862, “PubChem BioAssay data set” (2004).

The structures appear in SMILES notation. The source made the active and inactive calls. Some results are limits rather than exact numbers.

A short description of experiment [1]: viability loss in HEK293 cells – cell-based, plate reader, cherry-picked samples, cytotoxicity control, dose response (AID 743446). Format: functional.
The nature of experiment [2]: Luminescence Cell-Based Dose Response HTS to Identify Inhibitors of 5'UTR Stem-Loop Driven Prion Protein mRNA Translation in H4 Neuroglioblastoma Cells. [Related pubchem assays: 1827 (Project Summary), 1813 (Primary HTS)]. Format: functional.
Experiment [3] can be described thus: blockers of bursicon-stimulated LGR2 cAMP reporter – cell-based, HEK293, CRE-luciferase reporter, cherry pick, set 2, dose response (AID 743343).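 Further: transfected cells were stimulated with diluted bursicon conditioned medium after compound addition.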 Format: functional. In general terms: A reporter such as luciferase makes a cellular process visible.
A short description of experiment [4]: alpha-synuclein stem-loop luciferase translation blockers – H4 neuroglioma cells, luminescence, confirmation (AID 1988). Type of experiment: functional, cell-based.
In experiment [5] the test system is HEK293. As to the kind of experiment: EBV LMP1 TES2 canonical NF-kB signalling blockers – cell-based, HEK293, luciferase, cherry-pick, dose response (AID 588343). Format: functional. Conditions: Homo sapiens.
A short description of experiment [6]: A549 cell cytotoxicity, dose response, cytotoxicity control, plate reader, cherry-pick, antagonist series (AID 743412). Format: functional, cell-based.
Experiment [7] concerns the target Oxysterols receptor LXR-beta (Homo sapiens, UniProt P55055). Type of experiment: functional, cell-based.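 Further: Cell-based luminescence dose-response assay of agonist activity at LXR, run as a confirmatory counterscreen to a daf-12 agonist screen; HEK293 cells with Gal4-LXR fusion and GAL4-driven luciferase reporter; agonist potency from rising luciferase signal of a Gal4-LXR reporter.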
Experiment [8] can be described thus: toxicity toward HepG2 liver cells – cell-based, plate reader, cherry-pick, antagonist series, cytotoxicity control, dose response (AID 743416). Type of experiment: functional.
Experiment [9] can be described thus: blockade of melanocortin 4 receptor signaling – cell-based, plate reader, cherry pick, counter-screen for LGR2 antagonist project, dose response (AID 743444).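 Further: transfected HEK 293 cells stimulated with alpha-MSH peptide; potency of inhibitors of the alpha-MSH evoked signal.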 Format: functional.
The target in another experiment is fMet-Leu-Phe receptor (Homo sapiens, UniProt P21462). As to the kind of experiment: formyl peptide receptor binders – dose response (AID 519). Format: functional.
For experiment [10], the target named is NAD-dependent protein deacylase sirtuin-5, mitochondrial (Homo sapiens, UniProt Q9NXA8). Kind of experiment: sirtuin-5 deacylation blockers, concentration series – biochemical, fluorescence imaging, cherry-pick, set 5, dose response (AID 720591).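 Further: desuccinylation of succinyl peptide AMC substrate read as fluorescence after trypsin release; potency of inhibitors that lower fluorescence and may act on trypsin instead.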
Experiment [11] can be described thus: CMV-driven luciferase expression suppression in HEK293 – cell-based, luminescence, dry powder, counter-screen for Pax8 inhibitor project, dose response (AID 743020). Format: functional.
For experiment [12], the system named is HEK293. Kind of experiment: viability loss in HEK293T cells – cell-based, ATP luminescence, cherry-pick samples, cytotoxicity control, dose response (AID 687005).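 Further: cells exposed to compound for 48 hours.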 Format: functional. Conditions: Homo sapiens.
Experiment [13] is described as follows: HEK293 Cytotoxicity Assay Measured in Cell-Based System Using Plate Reader - 7071-01_Inhibitor_Dose_CherryPick_Activity_Set2. Format: functional.
Another experiment concerns the target Paired box protein Pax-8 (Homo sapiens, UniProt Q06710). Kind of experiment: PAX8 transcriptional activity inhibition in RMG-I – RMG-I cells, luciferase, cherry-pick, dose response (AID 687027).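 Further: luciferase reporter driven by Pax8 target thyroperoxidase promoter measured by SteadyGlo luminescence.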 Format: functional, cell-based.
Experiment [14] is described as follows: reduced cellular PGC1a acetyl-lysine signal – cell-based, cherry-picked samples, dose response (AID 720514).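 Further: potency may reflect raised or lowered acetylation signal.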 Format: functional.
Experiment [15] in a line: OVCAR8 cell viability loss – plate reader, dry powder samples, PAX8 project, dose response (AID 743197). Format: functional, cell-based. Particulars: OVCAR-8.
A further experiment has as its target Protein Wnt-3a (Mus musculus, UniProt P27467). As to the kind of experiment: SAR analysis of small molecule antagonists of Gli-SUFU in a Wnt3a luminescent reporter assay. Type of experiment: functional.
The nature of experiment [16]: T. cruzi growth inhibition in host cells, dose response, cell-based, plate reader, dry powder, set 2 (AID 652275). Type of experiment: functional.
Experiment [17] is described as follows: cytotoxicity toward Colo320 cells – cell-based, CellTiter-Glo luminescence, IC50, dose response (AID 1117334). Format: functional. Particulars: COLO 320. In general terms: ATP-based viability assays read luminescence as a measure of living cells.
The nature of experiment [18]: HCT116 cell viability decrease, GSK3B pretreatment – CellTiter-Glo, IC50, dose response (AID 1117339). Type of experiment: functional. Conditions: HCT-116.
A short description of experiment [19]: Reduced DLD-1 viability, concentration-response, CellTiter-Glo luminescence (AID 1117352). Format: functional.
The nature of experiment [20]: CellTiter-Glo luminescence survival assay, SW480 colon tumor line, concentration-response curve, half-maximal inhibitory concentration (AID 1117338). Type of experiment: functional.
The nature of experiment [21]: cytotoxicity toward HCT116 cells – cell-based, CellTiter-Glo luminescence, IC50, dose response (AID 1117332). Type of experiment: functional. Particulars: HCT-116.
Experiment [22] is described as follows: RKO cell viability reduction, dose response, CellTiter-Glo luminescence (AID 1117322). Format: functional.
A short description of experiment [23]: SNU-C1 cell viability reduction, dose response, CellTiter-Glo luminescence (AID 1117323). Format: functional, cell-based.
A short description of experiment [24]: cytotoxicity toward HT-29 cells – cell-based, CellTiter-Glo luminescence, IC50, dose response (AID 1117330). Format: functional.

NAD-dependent protein deacylase sirtuin-5, mitochondrial, sequence (Q9NXA8 whole entry): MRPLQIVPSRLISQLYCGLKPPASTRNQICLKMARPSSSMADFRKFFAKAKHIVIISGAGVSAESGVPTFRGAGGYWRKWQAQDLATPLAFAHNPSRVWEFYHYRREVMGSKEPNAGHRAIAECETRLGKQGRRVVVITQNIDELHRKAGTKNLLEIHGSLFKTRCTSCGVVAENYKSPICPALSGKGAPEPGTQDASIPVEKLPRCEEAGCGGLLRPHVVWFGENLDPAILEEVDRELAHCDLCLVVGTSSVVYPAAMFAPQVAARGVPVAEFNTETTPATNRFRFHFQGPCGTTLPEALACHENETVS
Oxysterols receptor LXR-beta, sequence (P55055 whole entry, the tested form may be a part): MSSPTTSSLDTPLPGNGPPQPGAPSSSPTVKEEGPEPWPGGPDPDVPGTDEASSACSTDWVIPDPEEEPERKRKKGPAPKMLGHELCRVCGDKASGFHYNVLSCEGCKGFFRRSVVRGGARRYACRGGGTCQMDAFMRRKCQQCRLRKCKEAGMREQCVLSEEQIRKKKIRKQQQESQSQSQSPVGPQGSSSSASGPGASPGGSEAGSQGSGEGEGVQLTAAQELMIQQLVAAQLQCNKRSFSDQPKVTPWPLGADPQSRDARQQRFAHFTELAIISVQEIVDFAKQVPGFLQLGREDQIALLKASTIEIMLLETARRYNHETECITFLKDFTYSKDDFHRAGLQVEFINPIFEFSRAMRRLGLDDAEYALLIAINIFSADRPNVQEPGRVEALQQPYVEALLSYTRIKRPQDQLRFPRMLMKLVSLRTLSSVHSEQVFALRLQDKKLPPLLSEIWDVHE
Protein Wnt-3a, sequence (P27467 whole entry): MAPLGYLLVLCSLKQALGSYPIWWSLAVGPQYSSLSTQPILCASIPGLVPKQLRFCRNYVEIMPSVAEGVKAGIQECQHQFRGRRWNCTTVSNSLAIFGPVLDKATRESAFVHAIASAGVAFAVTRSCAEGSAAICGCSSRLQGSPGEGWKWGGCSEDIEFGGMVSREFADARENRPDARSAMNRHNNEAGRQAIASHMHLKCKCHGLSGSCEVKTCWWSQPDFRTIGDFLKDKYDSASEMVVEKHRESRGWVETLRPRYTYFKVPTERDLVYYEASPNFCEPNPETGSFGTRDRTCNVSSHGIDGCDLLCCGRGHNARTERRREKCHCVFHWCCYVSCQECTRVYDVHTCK
Paired box protein Pax-8, sequence (Q06710 whole entry): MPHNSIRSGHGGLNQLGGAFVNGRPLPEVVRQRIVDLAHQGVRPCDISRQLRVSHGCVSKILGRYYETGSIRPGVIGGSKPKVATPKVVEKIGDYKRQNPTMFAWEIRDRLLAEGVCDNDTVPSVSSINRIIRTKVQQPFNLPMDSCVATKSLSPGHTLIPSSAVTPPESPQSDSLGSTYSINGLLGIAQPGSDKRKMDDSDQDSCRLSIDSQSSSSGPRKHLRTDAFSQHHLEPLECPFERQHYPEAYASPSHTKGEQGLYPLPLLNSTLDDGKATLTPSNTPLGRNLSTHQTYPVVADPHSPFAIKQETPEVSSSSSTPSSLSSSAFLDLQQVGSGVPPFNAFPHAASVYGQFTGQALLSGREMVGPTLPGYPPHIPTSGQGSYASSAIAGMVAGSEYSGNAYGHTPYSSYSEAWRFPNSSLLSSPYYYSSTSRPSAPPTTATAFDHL
fMet-Leu-Phe receptor, sequence (P21462 whole entry): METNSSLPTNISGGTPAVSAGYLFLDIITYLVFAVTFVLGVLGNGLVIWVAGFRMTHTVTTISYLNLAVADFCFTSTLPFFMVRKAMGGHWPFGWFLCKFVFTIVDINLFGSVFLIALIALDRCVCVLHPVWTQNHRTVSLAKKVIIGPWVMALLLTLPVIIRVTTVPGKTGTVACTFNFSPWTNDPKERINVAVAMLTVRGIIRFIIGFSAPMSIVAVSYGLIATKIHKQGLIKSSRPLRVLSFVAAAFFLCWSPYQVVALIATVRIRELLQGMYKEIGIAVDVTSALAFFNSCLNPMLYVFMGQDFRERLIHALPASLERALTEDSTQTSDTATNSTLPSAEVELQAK

Usually AC50 stands for the concentration at which the activity in the assay is half-maximal. As a reminder, the EC50 is the concentration that produces a half-maximal response. Regarding `Cc1ccc(CSc2nc3cc[nH]cc-3n2)cc1`, the AC50 was > 52 µM (inactive) in experiment [1]; 2.93 µM (active) in experiment [3]; 1.9 µM (active) in the experiment with HEK293 [5]; 26.5 µM (active) in experiment [6]; 31.6 µM (active) in experiment [8]; 2.98 µM (active) in [9]. Further, the EC50 is 10.8 µM (active) in experiment [2], 7.38 µM (active) in [4], > 67.5 µM (inactive) in “cells” and > 67.5 µM (inactive) in [7].
What is called Ki is a measure of affinity in units of concentration, obtained from inhibition or displacement. With `O=C(NCc1cccnc1)C1c2ccccc2C(=O)N1C1CCCCCCC1` (configuration not stated), the Ki on fMet-Leu-Phe receptor was 40.9 µM (inactive).
Turning to `O=C(NCC1(N2CCOCC2)CCCCC1)c1cccc(S(=O)(=O)Nc2ccc(F)cc2)c1`, the AC50 in experiment [10] was > 30 µM (inactive).
As for `C[C@@H]1CN([C@@H](C)CO)C(=O)CCCn2nncc2CO[C@H]1CN(C)S(=O)(=O)c1ccc(Cl)cc1`, the AC50 in [11] is < 1 µM (active).
As to `Cc1ccc(C2=NN(C(=O)c3ccc(Br)o3)C(c3ccc(C)cc3)C2)cc1` (configuration not stated), the AC50 (in the experiment on HEK293 [12]; in experiment [13]) was 20.2 µM (active) in each case.
As to `C[C@H](CO)N1C[C@H](C)[C@H](CN(C)Cc2ccc(Cl)c(Cl)c2)Oc2c(NC(=O)Nc3ccccc3)cccc2C1=O`, the AC50 (with HEK293 [12]; in experiment [13]) was 18.8 µM (active) in each case.
With `C[C@@H]1CCCCO[C@H](CN(C)Cc2ccc3c(c2)OCO3)[C@@H](C)CN([C@@H](C)CO)C(=O)c2cc(NC(=O)Nc3ccc(C(F)(F)F)cc3)ccc2O1`, the AC50 in experiment [11] was 41.9 µM (active); at Paired box protein Pax-8, 17.3 µM (active); in [14], 11.3 µM (active); in [15], 19.6 µM (active).
For orientation: IC50 means the concentration needed to halve the response being measured. Consider `CN1CCN(c2cc(NC(=O)c3ccccc3)ncn2)CC1`, for which the IC50 at Protein Wnt-3a was > 21.8 µM (inactive).
Take `O=C(Cc1ccccn1)N1CCCCN2[C@@H](CO)[C@H](c3ccc(Br)cc3)[C@@H]2C1`: in experiment [16], the AC50 is 2.31 µM (active).
Regarding `CCN(CC)C(=O)c1cccnc1` [NIKETHAMIDE], the IC50 in experiment [17], in [18], in experiment [19], in experiment [20], in experiment [21] and in [22] was > 20 µM (inactive) throughout. Besides, the IC50 in experiment [23] and in [24] was > 20 µM (inactive) throughout.
For `COc1ccc(-n2nc(CCC(=O)N(C)O)cc2-c2ccc(Cl)cc2)cc1` [TEPOXALIN], the IC50 in [17] is 0.662 µM (active); in experiment [19], 2.08 µM (active); in [20], 2.81 µM (active); in [21] it was 6.55 µM (inactive); in [22], 4.11 µM (active); in experiment [23] it was 1.75 µM (active).
